From US20140051729A1, “COMPOSITIONS AND METHODS FOR TREATING DEGENERATIVE MUSCLE CONDITIONS” (University of Washington, priority 2011, published 2014)

Assays:
[1] = test system: dystrophic flies (w; +/+; Dys^det1/Dys^det1); assay: Myofibril analysis of muscle wasting in dystrophic flies fed S1P promoting agents; type: in vivo, Drosophila; conditions: 217 μM in feed, three feeding cycles, 10-day old flies, three days after last feeding
Experimental: The effect of THI, a derivative of THI ((E)-1-(4-((1R,2S,3R)-1,2,3,4-tetrahydroxybutyl)-1H-imidazol-2-yl)-ethanone oxime) (“THI-oxime”), and a sphingosine analog (FTY720) on muscle wasting in dystrophic Drosopila flies was observed. Before feeding, 4 day old dystrophic flies (genotype: w; +/+; Dys^det1/Dys^det1) were placed in empty vials and starved for 6 hours. The flies were then provided access to one of a solution of 0.05 mg/mL (217 μM) 2-Acetyl-4(5)-tetrahydroxybutyl Imidazole (THI), or 217 μM FTY720, or 217 μM THI-oxime, in 5% light corn syrup in water for 16-18 hrs. After feeding, the flies were placed in new yeasted vials for 6-7 hrs. Flies were then transferred to empty vials with access to a 217 μM solution of THI, FTY720 or THI-oxime in a 5% light corn syrup in water for 16-18 hrs. This feeding cycle was repeated for a third time. After feeding for three cycles, the flies were placed in new yeasted vials. The 7-day old flies that had been administered the THI-oxime were analyzed immediately after the last feeding. The flies that has been administered THI and FTY720 were analyzed as 10-day old flies, three days after the last feeding with THI and FTY720.
Myofibril immunochemistry analysis was performed as disclosed herein. For each treatment group, 5 flies were analyzed, and 3 muscles per fly and 2 myofibrils per muscle were analyzed. Two tailed Student's t test was used to evaluate significance.
(§1) Flies were dipped in 95% EtOH and then dissected in 1×PBS (pH 7.4). Heads and abdomens were removed, and the thoraxes opened. Samples were stained using a modified ovary staining protocol 3. Samples were then fixed in 5% paraformaldehyde (Electron Microscopy Sciences) for 1 hour, rinsed in PBT (PBS/0.2% Triton X-100 v/v) 4 times, and then blocked for 1 hour in PBTB (PBT, 0.4% BSA w/v, 5% Normal Goat Serum v/v) at room temperature. […] For each genotype, 4-5 flies were analyzed, and 6-7 muscles per fly were analyzed.

[2] = test system: Dystrophic mutant flies (TubGal4:UAS-Dys^C-RNAi/+); assay: Myofibril Projectin immunohistochemistry in dystrophic flies after oral THI; type: in vivo, Drosophila melanogaster; conditions: 3 days once-daily oral THI, myofibrils from 10 day old flies
Experimental: In mice, the genetic reduction of S1P lyase activity can be phenocopied pharmacologically by the delivery of the small molecule 1-[5-[(1R,2S,3R)-1,2,3,4-tetrahydroxybutyl]-1H-imidazol-2-yl]-ethanone (THI), which inhibits the activity of S1P lyase. Dystrophic mutant flies were administered THI to investigate possible THI suppression of the muscle degeneration phenotype.
as §1, with “temperature. Samples were stained in primary antibody pre-diluted in PBTB (Phalloidin-Alexa-Fluor 568, Invitrogen [mouse, 1:200]; Projectin (Mac150), Babraham Institute [rat, 1:50]) overnight at 4° C., rinsed in PBT 4 times at room temperature (RT), and then stained with secondary antibody pre-diluted in PBTB (Alexa Fluor 488 [mouse, 1:500]) overnight at 4° C.” for “temperature.”, “analyzed. […]” for “analyzed.”

[3] = test system: S1P level; assay: S1P levels in tissues of CTX injured mdx mice after IP THI; type: in vivo, mouse; conditions: 5-month-old mdx males, IP THI 5 times during 3 days, day 4 post CTX, vs vehicle
Experimental: (a) Experimental schematic of THI (0.075 μg/day) and PBS (vehicle) treated mdx mice injected intraperitoneally (IP) twice daily for the first 72 hours following cardiotoxin (CTX) injury. Muscles, spleen or plasma from 5MO (n=6) mdx males were harvested for S1P and creatin kinase (CK) analysis at day 4 post CTX injury. Muscles from aged mdx mice (n=7 THI treated: 3 11MO females, 4 16MO males. n=6 vehicle: 3 11MO females, 3 16MO males) were harvested for histopathology analysis 18 days post CTX injury. […] (d) Quantification of Picrosirius Red staining indicates reduced fibrosis following injury in both Tibialis Anterior (TA) and Quadriceps (Quads) muscles in mice treated with THI. […] Scale bars=50 μm. (f) Oil Red-O staining depicts fat deposits (arrows) over the entire cross-sectional area of THI treated and control injured TAs. […] Error bars represent SEM.
The effects of THI in the dystrophic mdx mouse model were studied. […] THI was administered intraperitoneally (IP) to three groups of mdx mice. Right tibialis anterior (TA) and quadriceps muscles were uninjured, while left counterparts were injured using CTX, a well characterized model of acute injury where initial muscle destruction is followed by a rapid myogenic response. […] The effects of THI administration on the plasma creatine kinase (CK) activity level was also measured.

Compound: CC(=O)c1ncc([C@@H](O)[C@H](O)[C@H](O)CO)[nH]1 [THI, 1-[5-[(1R,2S,3R)-1,2,3,4-tetrahydroxybutyl]-1H-imidazol-2-yl]-ethanone]
- wild-type myofibrils [1]: approximately 67%
- suppression of muscle wasting (myofibrils) [2]: significant suppression of muscle wasting
- S1P level in CTX injured quadriceps [3]: significantly increased
- S1P level in spleen tissue [3]: significantly increased
